# Tests used:
# Type in all cases: physicochemical
# [1] = Determination of solubility in water (HPLC of supernatant); details: 25° C., 15 min, 50 mg suspended in 10 mL distilled water
# Description: After 50 mg each of samples of the crystals prepared according to the foregoing methods and the crystal of the compound (I) in its free state was suspended in 10 mL of distilled water and then each suspension was stirred at room temperature for 15 minutes, the supernatant of each suspension was collected, then passed through a disposable filter of 0.2 μm for HPLC, 1 to 3.5 g of each filtered supernatant was dispensed, the volume thereof was increased up to 10 mL with a 90% aqueous solution of acetonitrile and finally the content of the compound (I) present in the supernatant was determined according to the HPLC while using the following conditions.
# (Conditions for the HPLC Analysis)
# (§1) Device Used: LC-10A Series (available from Shimadzu Corporation);
# (§2) Column: Inertsil (available from GL Science Company) ODS-24.5 mm×150 mm, 5 μm, 40° C.;
# (§3) Flow Rate: 1 mL/min, UV at 254 nm, 10 μL Injection;
# (§4) Eluting Solution A: 0.1% TFA (trifluoroacetic acid)/water;
# (§5) Eluting Solution B: 0.1% TFA/MeCN;
# (§6) Gradient Program: 0→25 min (B: 0→90%).
# [2] = Determination of storage stability (accelerated test, HPLC); details: 40° C., 75% RH, 2M (two months)
# Description: The crystal of a salt of the compound represented by the formula (I) was inspected for the storage stability, when it was stored at 40° C., 75% RH over two months, according to the following method. The results observed for preferred crystals, i.e., forms Cl1, Br1, Br2, Ms1 and Ms3 crystals, among others, are summarized in the following Table 2. The data listed in Table 2 indicate that the crystals of the compound (I) in their preferred crystalline forms according to the present invention are particularly excellent in their storage stability.
# The storage stability of each sample, which had been stored in a depository at 40° C., 75% RH over two months, was determined according to the HPLC analysis method.
# More specifically, about 25 mg each of the crystals of the compound represented by the formula (I) was dispensed into a 50 mL volume measuring flask and then dissolved in a 90% aqueous solution of acetonitrile containing 0.1% TFA and the storage stability of the resulting solution was determined by the HPLC analysis under the following conditions.
# (Conditions for HPLC Analysis)
# as §1, §2, §3, §4, §5, §6
# [3] = Determination of adsorption-desorption of water vapor; details: isothermal water vapor adsorption-desorption, 25° C.
# Description: The crystals of the present invention were inspected for their water vapor adsorption-desorption ability using BELLSORP-aqua3 available from Nippon Bell Co., Ltd. More specifically, about 300 mg of the compound represented by the formula (I) was dispensed into a measuring tube, dried at 50° C. for 30 minutes and the amount of water vapor adsorbed on or desorbed from the crystal was determined under the following conditions:
# Adsorption Temperature: 25° C.; Equilibration Time: 500 sec; Saturated Vapor Pressure: 3.169 kPa;
# Excessively Introduced Amount: 0.2 or 1.0 cm^3 (STP)/g; Tolerance for Increase or Decrease of Adsorbed Amount: 0.2 or 1.0 cm^3 (STP)/g.
smiles,measurement,setting,value
COC(=O)[C@H](Cc1ccc(-n2c(=O)c3cc(N(C)C)ccc3n(C)c2=O)cc1)NC(=O)c1c(Cl)cccc1Cl [Form Br1],Solubility in Water,[1]; listed as HBr salt (Form Br1),120 µg/mL
same,"Accelerated Test, Stability: initial sample still in existence",[2],99.05% of the initial sample was still in existence.
COC(=O)[C@H](Cc1ccc(-n2c(=O)c3cc(N(C)C)ccc3n(C)c2=O)cc1)NC(=O)c1c(Cl)cccc1Cl [Form Br2],Solubility in Water,[1]; listed as HBr salt (Form Br2),123 µg/mL
same,"Accelerated Test, Stability: initial sample still in existence",[2],98.13% of the initial sample was still in existence and
same,change in crystalline state at a high humidity,[3],only a very slight change in its crystalline state
COC(=O)[C@H](Cc1ccc(-n2c(=O)c3cc(N(C)C)ccc3n(C)c2=O)cc1)NC(=O)c1c(Cl)cccc1Cl [Form Cl1],Solubility in Water,[1]; listed as Hydrochloride (Form Cl1),122 µg/mL
same,"Accelerated Test, Stability: initial sample still in existence",[2],99.03% of the initial sample was still in existence.
same,change in crystalline state at a high humidity,[3],only a very slight change in its crystalline state
COC(=O)[C@H](Cc1ccc(-n2c(=O)c3cc(N(C)C)ccc3n(C)c2=O)cc1)NC(=O)c1c(Cl)cccc1Cl [Form Cl2],Solubility in Water,[1]; listed as Hydrochloride (Form Cl2),101 µg/mL
COC(=O)[C@H](Cc1ccc(-n2c(=O)c3cc(N(C)C)ccc3n(C)c2=O)cc1)NC(=O)c1c(Cl)cccc1Cl [Form Cl3],Solubility in Water,[1]; listed as Hydrochloride (Form Cl3),102 µg/mL
COC(=O)[C@H](Cc1ccc(-n2c(=O)c3cc(N(C)C)ccc3n(C)c2=O)cc1)NC(=O)c1c(Cl)cccc1Cl [Form Cl5],Solubility in Water,[1]; listed as Hydrochloride (Form Cl5),91 µg/mL
COC(=O)[C@H](Cc1ccc(-n2c(=O)c3cc(N(C)C)ccc3n(C)c2=O)cc1)NC(=O)c1c(Cl)cccc1Cl [Form Ms1],Solubility in Water,[1]; listed as Methane-sulfonate (Form Ms1),102 µg/mL
same,"Accelerated Test, Stability: initial sample still in existence",[2],99.06% of the initial sample was still in existence.
same,change in crystalline state at a high humidity,[3],only a very slight change in its crystalline state
COC(=O)[C@H](Cc1ccc(-n2c(=O)c3cc(N(C)C)ccc3n(C)c2=O)cc1)NC(=O)c1c(Cl)cccc1Cl [Form Ms2],Solubility in Water,[1]; listed as Methane-sulfonate (Form Ms2),115 µg/mL
COC(=O)[C@H](Cc1ccc(-n2c(=O)c3cc(N(C)C)ccc3n(C)c2=O)cc1)NC(=O)c1c(Cl)cccc1Cl [Form Ms3],Solubility in Water,[1]; listed as Methane-sulfonate (Form Ms3),109 µg/mL
same,"Accelerated Test, Stability: initial sample still in existence",[2],97.41% of the initial sample was still in existence and
COC(=O)[C@H](Cc1ccc(-n2c(=O)c3cc(N(C)C)ccc3n(C)c2=O)cc1)NC(=O)c1c(Cl)cccc1Cl [Form Ms4],Solubility in Water,[1]; listed as Methane-sulfonate (Form Ms4),94 µg/mL
COC(=O)[C@H](Cc1ccc(-n2c(=O)c3cc(N(C)C)ccc3n(C)c2=O)cc1)NC(=O)c1c(Cl)cccc1Cl [Form N1],Solubility in Water,[1]; listed as Nitrate (Form N1),110 µg/mL
COC(=O)[C@H](Cc1ccc(-n2c(=O)c3cc(N(C)C)ccc3n(C)c2=O)cc1)NC(=O)c1c(Cl)cccc1Cl [Form N2],Solubility in Water,[1]; listed as Nitrate (Form N2),128 µg/mL
COC(=O)[C@H](Cc1ccc(-n2c(=O)c3cc(N(C)C)ccc3n(C)c2=O)cc1)NC(=O)c1c(Cl)cccc1Cl [Form S1],Solubility in Water,[1]; listed as Sulfate (Form S1),104 µg/mL
COC(=O)[C@H](Cc1ccc(-n2c(=O)c3cc(N(C)C)ccc3n(C)c2=O)cc1)NC(=O)c1c(Cl)cccc1Cl [Form S2],Solubility in Water,[1]; listed as Sulfate (Form S2),129 µg/mL
COC(=O)[C@H](Cc1ccc(-n2c(=O)c3cc(N(C)C)ccc3n(C)c2=O)cc1)NC(=O)c1c(Cl)cccc1Cl [Form S3],Solubility in Water,[1]; listed as Sulfate (Form S3),119 µg/mL
COC(=O)[C@H](Cc1ccc(-n2c(=O)c3cc(N(C)C)ccc3n(C)c2=O)cc1)NC(=O)c1c(Cl)cccc1Cl [Form Ts1],Solubility in Water,[1]; listed as Toluene-sulfonate (Form Ts1),97 µg/mL
COC(=O)[C@H](Cc1ccc(-n2c(=O)c3cc(N(C)C)ccc3n(C)c2=O)cc1)NC(=O)c1c(Cl)cccc1Cl [Free State],Solubility in Water,[1],0.12 µg/mL

# Reference: patent US9102630B2, “Crystals of salts of phenylalanine derivatives” (AJINOMOTO CO., INC., priority 2010, dated 2015)
